The nature of data set [1]: In vitro metabolic stability in rat plasma. In kind it is in vitro ADME. The note with it: rat, plasma, 37° C., 10 μM compound, read-out: Rat plasma T1/2. The procedure: (§1) This example detects the metabolic stability of the compounds of the present disclosure in human (rat) plasma and intestinal S9 in vitro. In a human (rat) plasma reaction system, 990 μl of human (rat) plasma was taken and incubated at 37° C. for 5 minutes, and 10 μl of the compound mother liquor was used to initiate the reaction. In the human (rat) intestinal S9 stability experiment, in the order shown in Table 2 below, the samples were added and incubated in a 37° C. water bath to initiate the reaction, each sample performed in triplicates. Respectively, at 1 minute, 2 minutes, 5 minutes, 15 minutes, 30 minutes after the reaction began, 100 μL of each was taken and added to a centrifuge tube containing 400 μL of 0° C. precooled internal standard working solution. The reaction was terminated, vortexed and mixed for 1 minute, centrifuged at 10000×g for 10 minutes in a 4° C. precooled high-speed centrifuge, and the supernatant was detected with HPLC. The test results were used to calculate metabolic half-life using WinNonlin (version 6.2 Pharsight, Mountain View, Calif.) with a non-compartmental model.
(§2) Compound stock solution concentration: 1 mM
(§3) Reaction matrix: human (rat) plasma, intestinal S9 purchased from Research Institute for Liver Diseases (Shanghai) Co., Ltd.

A short description of data set [2]: In vitro metabolic stability in human intestine S9. In kind it is in vitro ADME. The note with it: human, 37° C., 10 μM compound, 1 mg/mL S9, NADPH regeneration system, read-out: Human intestine S9 T1/2. The method, then: as §1, §2, §3
The nature of data set [3]: In vitro metabolic stability in rat intestine S9. In kind it is in vitro ADME. Conditions: rat, 37° C., 10 μM compound, 1 mg/mL S9, NADPH regeneration system, read-out: Rat intestine S9 T1/2. The procedure:
as §1, §2, §3

The nature of data set [4]: In vitro metabolic stability in human plasma. In kind it is in vitro ADME. Conditions: human, plasma, 37° C., 10 μM compound, read-out: Human plasma T1/2. The procedure: as §1, §2, §3
Data set [5] can be described thus: Determination of solubility in deionized water (HPLC, external standard). Conditions: 25 °C, water, thermodynamic from solid.
Data set [6] relates to Candida albicans ATCC10231. In words: Systemic fungal infection in mice, intragastric administration. In kind it is in vivo, ICR mice. The note with it: Candida albicans, ATCC10231, po, 20 mg/kg intragastric once daily for 5 days. The method, then: ICR mice, weighing 18-22 g, male, provided by Hubei Experimental Animal Center.
Prior to the experiment, a small amount of Candida albicans was picked from an SDA medium kept at 4° C. with an inoculation loop and inoculated into 1 ml YPD culture medium, cultured at 30° C. with 200 rpm shaking and activated for 16 hours, so that the fungus was in the late stage of exponential growth. Counted with a hemocytometer and the fungal solution concentration was adjusted to 1×10^3 to 5×10^3 CFU/ml with RPMI1640 medium. Monoclonal Candida albicans on SDA plate was picked up, inoculated into 1 ml YPD (Yeast Extract Peptone Dextrose Medium, the same below) culture medium, cultured at 35° C., 200 rpm for 16 hours until late exponential growth phase. Candida albicans was inoculated into fresh medium for culturing for 6 hours at 1%, centrifuged at 1000×g for 5 minutes, washed with physiological saline three times until the supernatant was colorless, counted with a hemocytometer, and the cell concentration was adjusted to 5×10^6 cells/ml. A tail vein injection of 0.1 ml/10 g caused a systemic fungal infection in mice. […] A total of 7 days of observations were performed. All dead mice were burned with ethanol.

Setting [7] is: 24 h, day 1, read-out: survival rate of mice, day 1.
The mark [8] stands for this setting: 48 h, day 2, read-out: survival rate of mice, day 2.
The mark [9] stands for this setting: 72 h, day 3, read-out: survival rate of mice, day 3.
Setting [10] is: 96 h, day 4, read-out: survival rate of mice, day 4.
[11] abbreviates: 120 h, day 5, read-out: survival rate of mice, day 5.
[12] abbreviates: 144 h, day 6, read-out: survival rate of mice, day 6.
Setting [13] is: 168 h, day 7, read-out: survival rate of mice, day 7.

Where two headings read alike, the source gives them in different places.

Turning to `CC[C@@H](C(C)OC(=O)OC(C)OC(=O)CCCCCCCCCOP(=O)([O-])[O-])n1ncn(-c2ccc(N3CCN(c4ccc(OC[C@@H]5CO[C@@](Cn6cncn6)(c6ccc(F)cc6F)C5)cc4)CC3)cc2)c1=O.[Na+].[Na+]` (stereo partly shown) [ST0072], the half-life at 10 µM in data set [1] worked out at 25.6 ± 13 min; in data set [2] (intestinal S9) it was 46.8 ± 12.8 min; in data set [3] (intestinal S9, pH 7.4), 39.9 ± 10.8 min; in data set [4], 18.3 ± 1.97 min.
As to `CC[C@@H](C(C)OC(=O)OC(C)OC(=O)CCCCOS(=O)(=O)[O-])n1ncn(-c2ccc(N3CCN(c4ccc(OC[C@@H]5CO[C@@](Cn6cncn6)(c6ccc(F)cc6F)C5)cc4)CC3)cc2)c1=O.[Na+]` (stereo partly shown) [ST0078], the solubility (usually how much of the substance goes into solution per volume) at 30 min in data set [5] was over 50 mg/mL. Further, the half-life at 10 µM in data set [1] was found to be 2.57 ± 0.74 min; in data set [2], 24.2 ± 8.75 min; in data set [3] (pH 7.4) it was 28.2 ± 5.65 min; in data set [4], 2.22 ± 0.58 min. The responders at 20 mg/kg in data set [6] (setting [7]) was 90%; in data set [6] (setting [8]), 90%; in data set [6] (setting [9]), 80%; in data set [6] (setting [10]), 70%; in data set [6] (setting [11]) it was 70%; in data set [6] (setting [12]), 70%. Also, the responders at 20 mg/kg in data set [6] (setting [13]) was determined as 70%.
In the case of `CC[C@@H]([C@H](C)O)n1ncn(-c2ccc(N3CCN(c4ccc(OC[C@@H]5CO[C@@](Cn6c[n+](C(C)OC(=O)OCC[C@@H](N)C(=O)O)cn6)(c6ccc(F)cc6F)C5)cc4)CC3)cc2)c1=O.Cl.[Cl-]` (stereo partly shown) [ST0018], the half-life at 10 µM in data set [1] is 11.5 ± 1.23 min; in data set [2] (intestinal S9), 50.1 ± 5.98 min; in data set [3] (intestinal S9, pH 7.4), 45.2 ± 6.95 min; in data set [4], 18.6 ± 5.63 min.
`CC[C@@H](C(C)OC(=O)OC(C)OC(=O)CCCCCOS(=O)(=O)[O-])n1ncn(-c2ccc(N3CCN(c4ccc(OC[C@@H]5CO[C@@](Cn6cncn6)(c6ccc(F)cc6F)C5)cc4)CC3)cc2)c1=O.[Na+]` (stereo partly shown) [ST0079]: the solubility at 30 min in data set [5] is over 50 mg/mL. The half-life at 10 µM stood at 2.06 ± 0.77 min in data set [1], 28.7 ± 8.9 min in data set [2], 27.9 ± 11.2 min in data set [3] (pH 7.4) and 2.56 ± 0.42 min in data set [4]. Further, the responders at 20 mg/kg in data set [6] (setting [7]) is 90%; in data set [6] (setting [8]), 90%; in data set [6] (setting [9]) it was 90%; in data set [6] (setting [10]), 80%; in data set [6] (setting [11]), 80%; in data set [6] (setting [12]) it was 70%. In data set [6] (setting [13]), the responders at 20 mg/kg was determined as 70%.
For `CC[C@@H]([C@H](C)OC(=O)OC(C)OC(=O)Cc1ccc(OS(=O)(=O)[O-])cc1)n1ncn(-c2ccc(N3CCN(c4ccc(OC[C@@H]5CO[C@@](Cn6cncn6)(c6ccc(F)cc6F)C5)cc4)CC3)cc2)c1=O.[Na+]` (stereo partly shown) [ST0080], the half-life at 10 µM worked out at 13.3 ± 4.78 min in data set [1], 40.3 ± 12.7 min in data set [2], 45.4 ± 11.3 min in data set [3] (pH 7.4) and 12.8 ± 3.57 min in data set [4]. Further, the responders at 20 mg/kg in data set [6] (setting [7]) amounted to 90%; in data set [6] (setting [8]), 90%; in data set [6] (setting [9]), 90%; in data set [6] (setting [10]), 80%; in data set [6] (setting [11]), 70%; in data set [6] (setting [12]), 70%. The responders at 20 mg/kg in data set [6] (setting [13]) was 60%.
On to `CC[C@@H]([C@H](C)OC(=O)OC(C)OC(=O)CCCCCCCOS(=O)(=O)[O-])n1ncn(-c2ccc(N3CCN(c4ccc(OC[C@@H]5CO[C@@](Cn6cncn6)(c6ccc(F)cc6F)C5)cc4)CC3)cc2)c1=O.[Na+]` (stereo partly shown) [ST0082], for which, in data set [5], the solubility at 30 min is over 50 mg/mL. Also, the half-life at 10 µM in data set [1] is 9.36 ± 1.56 min; in data set [2] it was 42.1 ± 13.7 min; in data set [3] (pH 7.4), 52.6 ± 8.69 min; in data set [4] it was 8.99 ± 2.52 min. For the same molecule, the responders at 20 mg/kg in data set [6] (setting [7]) came out at 90%; in data set [6] (setting [8]), 70%; in data set [6] (setting [9]), 70%; in data set [6] (setting [10]) it was 70%; in data set [6] (setting [11]), 70%; in data set [6] (setting [12]), 70%. Further, in data set [6] (setting [13]), the responders at 20 mg/kg came out at 60%.

Source of the values: patent US10517867B2, “Posaconazole derivative, pharmaceutical composition and use thereof” (priority 2016, dated 2019).
